Assay: Storage stability of the crystalline form at 30° C. / 65% RH in a capped vial
Type: physicochemical
Text: The crystalline formic acid solvate of bardoxolone methyl; more particularly, Form A, can be dried by any conventional methods known to one of ordinary skill in the art. In one embodiment, it is desirable to avoid extensive drying of the crystalline formic acid solvate of bardoxolone methyl; more particularly, Form A, to avoid the potential for desolvation. In one embodiment, it is desirable to store the crystalline formic acid solvate of bardoxolone methyl; more particularly, Form A, away from high heat and humidity. Form A remains stable at 30° C. at 65% RH for at least 5 days in a capped vial.

time Form A remains stable: at least 5 days
Structure (SMILES): COC(=O)[C@]12CCC(C)(C)C[C@H]1[C@H]1C(=O)C=C3[C@@]4(C)C=C(C#N)C(=O)C(C)(C)[C@@H]4CC[C@@]3(C)[C@]1(C)CC2 [Form A, di-formic acid solvate of bardoxolone methyl]
